Common to all, as to assay type: functional, cell-based
Test [1] relates to OVCAR-3. Briefly: Cytotoxicity against human OVCAR3 cells assessed as cell death after 24 hrs by trypan blue exclusion assay.
In test [2] the test system is OVCAR-3. The test is described as follows: Cytotoxicity against human OVCAR3 cells assessed as change in cell shape after 24 hrs by trypan blue exclusion assay.
Test [3] concerns OVCAR-3. Briefly: Cytotoxicity against human OVCAR3 cells assessed as reduction in viable cells after 24 hrs by trypan blue exclusion assay.

The source made the active and inactive calls. The calls are words filed in the database; no cut-off is given here.

For `COc1cc2c(c(OC)c1OC)-c1ccc(OC)c(=O)cc1[C@@H](NC(=O)CN1CCN(CC(=O)O)CCN(CC(=O)O)CCN(CC(=O)O)CC1)CC2`, the outcome in the test with OVCAR-3 [1] and in the test on OVCAR-3 [2] was Active.
Turning to `COc1cc2c(c(OC)c1OC)-c1ccc(OC)c(=O)cc1[C@@H](NC(C)=O)CC2`, the result in the test on OVCAR-3 [1], in the test with OVCAR-3 [2] and with OVCAR-3 [3] was Active.

(Values after ChEMBL document CHEMBL1777769, “Synthesis and characterisation of a novel tubulin-directed DO3A-colchicine conjugate with potential theranostic features” (Bioorg Med Chem Lett, 2011).)
